From PubChem BioAssay (NCI)
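Assay format: 96-well plates, 48-hour exposure. TGI is the concentration that stops growth completely.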

How the values were obtained:
Assay in all cases: NCI-60 cell line screen, 48 h
[1] = test system: OVCAR-3 ovarian
[2] = test system: KM20L2 colon
[3] = test system: HCC-2998 colon
[4] = test system: MALME-3M melanoma
[5] = test system: HOP-18 NSCLC
[6] = test system: COLO 205 colon
[7] = test system: HOP-92 NSCLC
[8] = test system: U251 CNS
[9] = test system: CCRF-CEM leukemia
[10] = test system: M14 melanoma
[11] = test system: DMS 273 small cell lung
[12] = test system: RPMI-8226 leukemia
[13] = test system: EKVX NSCLC
[14] = test system: SK-MEL-2 melanoma
[15] = test system: LOX IMVI melanoma
[16] = test system: UACC-62 melanoma
[17] = test system: SK-MEL-5 melanoma
[18] = test system: NCI-H226 lung
[19] = test system: HL-60(TB) leukemia
[20] = test system: SN12C renal
[21] = test system: TK-10 renal
[22] = test system: LXFL 529 NSCLC
[23] = test system: HT29 colon
[24] = test system: OVCAR-5 ovarian
[25] = test system: 786-0 renal
[26] = test system: SF-295 CNS
[27] = test system: M19-MEL melanoma
[28] = test system: NCI-H522 lung
[29] = test system: SW-620 colon
[30] = test system: ACHN renal
[31] = test system: HCT-116 colon
[32] = test system: DLD-1 colon
[33] = test system: NCI-H23 lung
[34] = test system: K-562 leukemia
[35] = test system: CAKI-1 renal
[36] = test system: SF-268 CNS
[37] = test system: OVCAR-8 ovarian
[38] = test system: KM12 colon
[39] = test system: OVCAR-4 ovarian

Measured: TGI

C[C@@]12[Se]c3ccccc3[C@]1(C)[Se]c1ccccc12
7.18 µM: [16]
8.4 µM: [19]
> 100 µM: all other assays above
